# Reference: patent publication US6667153B1 (priority 2000, dated 2003)
# Where two headings read alike, the source gives them in different places.
# Tests used:
# [1] = system: E. coli GW2100/pTJgfp (umuC'::gfp); details: nutrient broth, FIG. 3
# [2] = system: E. coli GW2100/pTJgfp (umuC'-gfp fusion); details: for Mean fluorescence emission: 24 hours incubation
# [3] = system: arg-3 marker in E. coli strain GW2100/pTJgfp; details: for Mean revertant colony numbers: 37 parallel cultures, 4 day plate incubation
structure (smiles),measurement,setting,value
"COS(C)(=O)=O [MMS, methylmethane sulphonate]",fluorescence level compared with the 0 dose control,[1]; MMS 13 μg/ml,no significant difference
same,fluorescence level (cellular toxicity),[1]; MMS 1300 μg/ml,lower level of fluorescence
same,fluorescence level compared with the 0 dose control,[1]; MMS 325 and 650 μg/ml,dose-dependent manner
same,"K.S statistic, fluorescence emission, mutagen versus the control",[2]; MMS 13 μg/ml,3.09
same,Mean fluorescence emission,"[2]; MMS 13 μg/ml, 84 parallel cultures",13.22
same,"K.S statistic, fluorescence emission, mutagen versus the control",[2]; MMS 325 μg/ml,6.48
same,Mean fluorescence emission,"[2]; MMS 325 μg/ml, 84 parallel cultures",36.5
same,mutagenic activity by shift in mean fluorescent output per culture,"[2]; MMS 325 μg/ml, 84 parallel cultures, FIG. 10",pronounced
same,"K.S statistic, revertant colony numbers, mutagen versus the control",[3]; MMS 13 μg/ml,2.711
same,Mean revertant colony numbers,[3]; MMS 13 μg/ml,8.84
same,mutagenicity through change in culture to culture variation in mutant numbers (mean unchanged),"[3]; MMS 13 μg/ml, FIG. 8",mutagenicity is still detectable
same,"K.S statistic, revertant colony numbers, mutagen versus the control",[3]; MMS 325 μg/ml,3.889
same,Mean revertant colony numbers,[3]; MMS 325 μg/ml,17.95
same,response in mean number of revertant colonies per culture sample,"[3]; MMS 325 μg/ml, FIG. 8",clearly positive result
